Measurements taken from PMC7966987, “Insights into the catalytic properties of the mitochondrial rhomboid protease PARL” (The Journal of Biological Chemistry, 2021).
Like-named read-outs stand apart in the source and are kept apart here. Residues, ends and D or L forms follow the SMILES beside them.

Legend:
Rhomboid-1 = conditions: cited from earlier work
Text: (§1) Rhomboids were initially discovered to be serine proteases because the first identified rhomboid protease from Drosophila, Rhomboid-1, was sensitive to serine protease inhibitors dichloroisocoumarin (DCI) and tosyl phenylalanyl chloromethylketone (TPCK) ([44]).

PARLΔ77 [1] = target: T1, PARLΔ77 (Homo sapiens, UniProt Q9H300); assay: Inhibition by commercial serine protease inhibitors, PARLΔ77 in proteoliposomes; assay type: biochemical; conditions: 100 μM inhibitor, in PL, IQ-PINK1 and IQ-PGAM5 substrates, N=3
T1 construct: GFP-hexahistidine (behind a TEV cleavage site) (C, cleaved yes); made in house; host or cells: Pichia pastoris
T1 sequence (Q9H300 78-379): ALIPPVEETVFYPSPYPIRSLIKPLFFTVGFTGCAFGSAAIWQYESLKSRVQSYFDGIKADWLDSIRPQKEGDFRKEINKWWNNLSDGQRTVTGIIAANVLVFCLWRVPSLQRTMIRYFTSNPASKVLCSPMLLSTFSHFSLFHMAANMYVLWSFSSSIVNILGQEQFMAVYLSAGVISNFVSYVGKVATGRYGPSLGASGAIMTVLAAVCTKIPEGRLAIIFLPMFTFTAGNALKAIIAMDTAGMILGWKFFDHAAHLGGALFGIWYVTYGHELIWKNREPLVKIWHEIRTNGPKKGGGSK
Experimental: We examined whether inhibitors belonging to three standard serine protease inhibitors families—sulfonyl fluoride (PMSF), chloromethyl ketone (TPCK), and coumarin (DCI)—were able to inhibit PARL when tested with IQ-PINK1 and IQ-PGAM5 substrates. […] Overall this supports the view that for PARL, specific inhibitors will need to be developed similar to bacterial rhomboid proteases ([48], [49]).
The activity assay with PARL reconstituted in PL was performed the same way as for PARL in DDM with the only difference being the activity buffer, where DDM was omitted (50 mM Tris-HCl pH 7.0, 150 mM NaCl, 10% glycerol). For inhibitory studies, PARL in PL (0.8 μM) was incubated with inhibitors (20 μM) in activity buffer for 30 min, and then the proteolytic reaction was started with the addition of substrate (5 μM). […]
(§2) inhibitors. Bar graphs for percent activity of detergent solubilized (A) and proteoliposome reconstituted (B) PA R L Δ77with100µMofinhibitoradded prior to the addition of IQ-PINK1 and IQ-PGAM5 substrates. Experiments were conducted in duplicate with an N=3.
(§3) Individual data points (black dots) are indicated on the bar graphs, representing the mean […]

PARLΔ77 [2] = target: T1, PARLΔ77; assay: Inhibition by commercial serine protease inhibitors, PARLΔ77 in detergent; assay type: biochemical; conditions: 100 μM inhibitor, IQ-PINK1 and IQ-PGAM5 substrates, N=3
Text: We examined whether inhibitors belonging to three standard serine protease inhibitors families—sulfonyl fluoride (PMSF), chloromethyl ketone (TPCK), and coumarin (DCI)—were able to inhibit PARL when tested with IQ-PINK1 and IQ-PGAM5 substrates. […] Overall this supports the view that for PARL, specific inhibitors will need to be developed similar to bacterial rhomboid proteases ([48], [49]). […]
as §2, §3

PARLΔ77 [3] = target: T1, PARLΔ77; assay: Competition assay, IQ-PGAM5(20-29) cleavage in presence of PINK1(89-111); assay type: biochemical; conditions: read-out: Ki (Kd represented by Ki of the PARL-PINK1(89-111) complex)
Text: (§4) To determine if substrates bind to the same site, we performed competition binding assays using fluorescent IQ-PGAM5^20–29 and IQ-Smac/Diablo^51–60 as the main substrates and nonfluorescent PINK1^89–111 (^89[…]^111) as a competing substrate (Fig. 4). The longer version of substrate was used in this assay in order to reveal possible exosite interactions of substrate with PARL, assuming that regions surrounding the cleavage site might be involved in a primary substrate binding with a putative exosite.
(§5) Fluorescence detection of each substrate concentration in the presence of corresponding PINK189-111 without enzyme was used as a negative control. Initial velocities were determined for each substrate concentration. Michaelis–Menten plots were subjected to global fit to distinguish the kinetic model and determine the kinetic parameters. Values are represented as mean ± SEM (N = 3). […] The only names printed in the panels are the substrates on the x-axis, and KM and kcat are assigned to them.
(§6) The Michaelis–Menten curves of PARL-mediated cleavage of IQ-PGAM5^20–29 and IQ-Smac/Diablo^51–60 were obtained in the presence of different concentrations of PINK1^89–111.

PARLΔ77 [4] = target: T1, PARLΔ77; assay: Competition assay, IQ-Smac/Diablo(51-60) cleavage in presence of PINK1(89-111); assay type: biochemical; conditions: read-out: Ki (Kd represented by Ki of the PARL-PINK1(89-111) complex)
Text: as §4, §5, §6

[5] = test system: bacterial rhomboid proteases; conditions: cited from earlier work
Text: as §1

PARLΔ77 [6] = target: T1, PARLΔ77; assay: Lipid effect on PARLΔ77 cleavage of FRET-PINK1(70-134); assay type: biochemical; conditions: vs no lipid, N = 4
Text: Lipids are known to influence membrane protein function ([29]). In mitochondria, for example, increased CL amounts are observed during mitochondrial stress, which influences protein function at the molecular level ([30]). Therefore, we assessed the effect of the three primary lipids present in the IMM, namely CL, phosphatidylcholine (POPC), and phosphatidylethanolamine (POPE) on PARLΔ77 activity with the FRET-PINK^70–134 substrate (Fig. 1D) ([31]). The lipid-free conditions were used as a baseline and consisted of PARLΔ77 reconstituted in detergent (DDM) micelles, while all lipid conditions consisted of a mixed detergent-lipid micelle system. First we assess the effect of different classes of lipids. […] In order to precisely determine the optimal concentration of CL for PARL activity, the initial velocities of PARL-mediated cleavage of FRET-PINK1^70–134 were measured in the presence of increasing concentrations of CL. […] Therefore, CL was included in all subsequent protein preparations of detergent-solubilized PARL at the last purification step.
Figure S5. The dependence of PA R LΔ77activity on CL concentration. The initial velocities of PA R LΔ77weremeasuredin the presence of different molar ratios of CL using FRET-PINK170-134 substrate. One-way ANOVA with multiple comparisons was performed between the no-lipid condition and each molar ratio of CL:protein to determine if differences observed were significant. A total of five experimental replicates performed in duplicate were used for data analysis (N = 5). Individual data points (black dots) are indicated on the bar graphs, representing the mean ±SEM
(1 picture or pasted object on this page, not shown here)

preferred substrates = conditions: cited from earlier work
Experimental: The bacterial rhomboid proteases from Haemophilus influenzae (HiGlpG) and P. stuartii (AarA) cleave at a rate of roughly two per minute for their preferred substrates in DDM, while the E. coli rhomboid protease GlpG cleaves slowly in DDM, much like PARL, at a rate of approximately six per hour and with a rate of 2.5 min^−1 in PLs ([26], [34], [35]).

[7] = target: PARLΔ77 (β-cleavage form of human PARL) (human) (UniProt Q9H300); assay: competitive inhibition of FRET peptide cleavage (enzyme kinetics); PARLΔ77 0.8 μM; IQ-Smac/Diablo 51-60 (0.3–25 μM) as main substrate; nonfluorescent PINK1 89-111 at 2.5, 5, 10, 20 μM; Michaelis–Menten plots fitted globally, competitive model; Kd represented by Ki
Sequence of PARLΔ77 (β-cleavage form of human PARL) (human) (Q9H300 77-379, stated change not applied): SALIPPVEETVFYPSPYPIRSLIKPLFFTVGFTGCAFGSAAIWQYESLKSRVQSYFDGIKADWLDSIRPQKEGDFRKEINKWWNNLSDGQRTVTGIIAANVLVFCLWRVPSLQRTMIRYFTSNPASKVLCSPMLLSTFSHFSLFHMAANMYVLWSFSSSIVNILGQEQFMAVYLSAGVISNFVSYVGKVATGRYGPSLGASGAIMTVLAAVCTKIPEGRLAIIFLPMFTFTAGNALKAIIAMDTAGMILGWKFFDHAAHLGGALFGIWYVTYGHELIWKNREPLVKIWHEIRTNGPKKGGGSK

[8] = target: PARLΔ77 (β-cleavage form of human PARL) (human) (UniProt Q9H300); assay: competitive inhibition of FRET peptide cleavage (enzyme kinetics); PARLΔ77 0.8 μM; IQ-PGAM5 20-29 (0.13-19 μM) as main substrate; nonfluorescent PINK1 89-111 at 2.5, 5, 10, 20 μM; Michaelis–Menten plots fitted globally, competitive model; Kd represented by Ki
[9] = lipid at molar ratio 50:1, mixed detergent (DDM)-lipid micelles

O=c1oc(Cl)c(Cl)c2ccccc12 [DCI, dichloroisocoumarin]
inhibition of Drosophila Rhomboid-1 (Rhomboid-1): sensitive
inhibition of PARL activity (PARLΔ77 [1]): largest inhibitory effect
inhibition of PARL activity (PARLΔ77 [2]): largest inhibitory effect

CC[C@H](C)[C@H](NC(=O)[C@H](CC(C)C)NC(=O)CNC(=O)[C@H](CC(C)C)NC(=O)CNC(=O)[C@H](CC(C)C)NC(=O)CNC(=O)[C@H](Cc1ccccc1)NC(=O)[C@H](C)NC(=O)[C@H](CC(C)C)NC(=O)[C@H](Cc1ccccc1)NC(=O)[C@@H](NC(=O)[C@H](C)NC(=O)[C@H](CCCNC(=N)N)NC(=O)CNC(=O)[C@H](CS)NC(=O)[C@@H]1CCCN1C(=O)CNC(=O)[C@H](C)NC(=O)[C@H](CS)NC(=O)CNC(=O)[C@H](Cc1c[nH]c2ccccc12)NC(=O)[C@H](C)NC(=O)[C@H](CO)NC(=O)CN)C(C)C)C(=O)O [PINK1^89–111] (H-GSAWGCAGPCGRAVFLAFGLGLGLI-OH)
Ki (PARLΔ77 [3]): 2400 ± 600 nM
Ki (PARLΔ77 [4]): 2300 ± 700 nM

O=S(=O)(F)Cc1ccccc1 [PMSF]
inhibition of bacterial rhomboid proteases [5]: does not act on bacterial rhomboid proteases
inhibition of PARL activity (PARLΔ77 [1]): not inhibited
inhibition of PARL activity (PARLΔ77 [2]): not inhibited

Cc1ccc(S(=O)(=O)N[C@@H](Cc2ccccc2)C(=O)CCl)cc1 [TPCK, tosyl phenylalanyl chloromethylketone]
inhibition of Drosophila Rhomboid-1 (Rhomboid-1): sensitive
inhibition of PARL activity (PARLΔ77 [1]): partially inhibits
inhibition of PARL activity (PARLΔ77 [2]): partially inhibits

cardiolipin [CL]
effect on PARL activity (PARLΔ77 [6]; [9]): significant increase in PARL activity

phosphatidylethanolamine [POPE]
effect on PARL activity (PARLΔ77 [6]; [9]): did not significantly increase PARL activity
effect on PARL activity (PARLΔ77 [6]; lipid at molar ratio 100:1, mixed detergent (DDM)-lipid micelles): did not significantly increase PARL activity

B1: GlpG: E. coli rhomboid protease (protein, UniProt P09391 1-276, looked up)
Rhomboid protease GlpG: MLMITSFANPRVAQAFVDYMATQGVILTIQQHNQSDVWLADESQAERVRAELARFLENPADPRYLAASWQAGHTGSGLHYRRYPFFAALRERAGPVTWVMMIACVVVFIAMQILGDQEVMLWLAWPFDPTLKFEFWRYFTHALMHFSLMHILFNLLWWWYLGGAVEKRLGSGKLIVITLISALLSGYVQQKFSGPWFGGLSGVVYALMGYVWLRGERDPQSGIYLQRGLIIFALIWIVAGWFDLFGMSMANGAHIAGLAVGLAMAFVDSLNARKRK
cleavage rate (preferred substrates; in DDM): approximately six
cleavage rate (preferred substrates; in PLs): 2.5 min⁻¹

B2: PINK1 TM domain (amino acids 89–111), nonfluorescent (peptide)
peptide: AWGCAGPCGRAVFLAFGLGLGLI
Ki [7]: 2300 nM
Ki [8]: 2400 nM
